Measured values taken from ChEMBL document CHEMBL5365531, “Structure-Activity Relationship Studies of SARS-CoV-2 Main Protease Inhibitors Containing 4-Fluorobenzothiazole-2-carbonyl Moieties” (J Med Chem, 2023).

Experiments:
SARS-CoV-2 [1] = experiment: Antiviral activity against SARS-CoV-2 hCoV-19/Japan/TKYS02037/2022 (omicron BA.2) infected in Vero E6 cells preincubated with cells for 1 day followed by viral infection and measured after 3 days by qRT-PCR analysis; type: functional, organism-based; conditions: Severe acute respiratory syndrome coronavirus 2, hCoV-19/Japan/TKYS02037/2022 (omicron BA.2), Vero C1008
SARS-CoV-2 [2] = experiment: Antiviral activity against SARS-CoV-2 infected in Vero E6 cells preincubated with cells for 1 day followed by viral infection and measured after 3 days by qRT-PCR analysis; type: functional, organism-based; conditions: Severe acute respiratory syndrome coronavirus 2, Vero C1008
[3] = Cytotoxicity against African green monkey Vero E6 cells incubated for 3 days by WST-8 assay; type: toxicity, cell-based, Vero C1008; conditions: chlorocebus sabaeus, time 3 day
SARS-CoV-2 [4] = experiment: Antiviral activity against SARS-CoV-2 infected in Vero E6 cells preincubated with cells for 1 day in absence of HCl followed by viral infection and measured after 3 days by qRT-PCR analysis; type: functional, organism-based; conditions: Severe acute respiratory syndrome coronavirus 2, Vero C1008
SARS-CoV-2 [5] = experiment: Antiviral activity against SARS-CoV-2 infected in Vero E6 cells preincubated with cells for 1 day in presence of HCl treated compound followed by viral infection and measured after 3 days by qRT-PCR analysis; type: functional, organism-based; conditions: Severe acute respiratory syndrome coronavirus 2, Vero C1008
PBMC = experiment: Cytotoxicity against human PBMC cells assessed as reduction in cell viability at 10 uM incubated for 12 days by CCK-8 assay; type: toxicity, cell-based; conditions: 288 h, time 12 day
MOLT-4 = experiment: Cytotoxicity against human MOLT-4 cells assessed as reduction in cell viability at 10 uM incubated for 12 days by CCK-8 assay; type: toxicity, cell-based; conditions: molt-4, 288 h, time 12 day
MT2 = experiment: Cytotoxicity against human MT2 cells assessed as reduction in cell viability at 10 uM incubated for 12 days by CCK-8 assay; type: toxicity, cell-based; conditions: mt2, 288 h, time 12 day
[6] = Mutagenicity in Salmonella typhimurium TA100 assessed as inhibition of bacterial growth at 0.152 to 333 ug incubated in presence of S9 fraction by micro-Ames test; type: toxicity, subcellular, Salmonella enterica subsp. enterica serovar Typhimurium; conditions: dose 0.152-333 µg
[7] = Mutagenicity in Salmonella typhimurium TA1535 assessed as inhibition of bacterial growth at 0.152 to 333 ug incubated in presence of S9 fraction by micro-Ames test; type: toxicity, subcellular, Salmonella enterica subsp. enterica serovar Typhimurium; conditions: dose 0.152-333 µg
[8] = Mutagenicity in Salmonella typhimurium TA98 assessed as inhibition of bacterial growth at 0.152 to 333 ug incubated in presence of S9 fraction by micro-Ames test; type: toxicity, subcellular, Salmonella enterica subsp. enterica serovar Typhimurium; conditions: dose 0.152-333 µg
[9] = Mutagenicity in Salmonella typhimurium TA1537 assessed as inhibition of bacterial growth at 0.152 to 333 ug incubated in presence of S9 fraction by micro-Ames test; type: toxicity, subcellular, Salmonella enterica subsp. enterica serovar Typhimurium; conditions: dose 0.152-333 µg
[10] = Mutagenicity in Escherichia coli WP2uvrA assessed as inhibition of bacterial growth at 0.152 to 333 ug incubated in presence of S9 fraction by micro-Ames test; type: toxicity, subcellular; conditions: dose 0.152-333 µg
[11] = Mutagenicity in Salmonella typhimurium TA100 assessed as inhibition of bacterial growth at 0.152 to 333 ug incubated in absence of S9 fraction by micro-Ames test; type: toxicity, Salmonella enterica subsp. enterica serovar Typhimurium; conditions: in vivo; dose 0.152-333 µg
[12] = Mutagenicity in Salmonella typhimurium TA1535 assessed as inhibition of bacterial growth at 0.152 to 333 ug incubated in absence of S9 fraction by micro-Ames test; type: toxicity, Salmonella enterica subsp. enterica serovar Typhimurium; conditions: in vivo; dose 0.152-333 µg
[13] = Mutagenicity in Salmonella typhimurium TA98 assessed as inhibition of bacterial growth at 0.152 to 333 ug incubated in absence of S9 fraction by micro-Ames test; type: toxicity, Salmonella enterica subsp. enterica serovar Typhimurium; conditions: in vivo; dose 0.152-333 µg
[14] = Mutagenicity in Salmonella typhimurium TA1537 assessed as inhibition of bacterial growth at 0.152 to 333 ug incubated in absence of S9 fraction by micro-Ames test; type: toxicity, Salmonella enterica subsp. enterica serovar Typhimurium; conditions: in vivo; dose 0.152-333 µg
[15] = Mutagenicity in Escherichia coli WP2uvrA assessed as inhibition of bacterial growth at 0.152 to 333 ug incubated in absence of S9 fraction by micro-Ames test; type: toxicity; conditions: in vivo; dose 0.152-333 µg
Vero C1008 = experiment: Cytotoxicity against African green monkey Vero E6 cells infected with SARS-CoV-2 WK-521 upto 100 uM incubated for 3 days by immunostaining analysis; type: toxicity, cell-based; conditions: chlorocebus sabaeus, vero c1008, 72 h, time 3 day

SMILES: CC(C)(C)[C@H](NC(=O)C(F)(F)F)C(=O)N1C[C@H]2[C@@H]([C@H]1C(=O)N[C@H](C#N)C[C@@H]1CCNC1=O)C2(C)C
- EC50 (SARS-CoV-2 [1]): 1.4 µM
- EC50 (SARS-CoV-2 [2]): 1.6 µM
- CC50 at 72 h [3]: > 100 µM
- EC50 (SARS-CoV-2 [4]): 1.4 µM
- EC50 (SARS-CoV-2 [5]): 2.5 µM
- Activity (PBMC): Non-Toxic
- Activity (MOLT-4): Non-Toxic
- Activity (MT2): Non-Toxic
- Activity [6]: Non-Toxic
- Activity [7]: Non-Toxic
- Activity [8]: Non-Toxic
- Activity [9]: Non-Toxic
- Activity [10]: Non-Toxic
- Activity [11]: Non-Toxic
- Activity [12]: Non-Toxic
- Activity [13]: Non-Toxic
- Activity [14]: Non-Toxic
- Activity [15]: Non-Toxic
- Activity (Vero C1008): Non-Toxic
